Source: patent publication US12065443B2, “Compounds and pharmaceutical compositions thereof for the treatment of diseases” (priority 2017, dated 2024)
Read-outs that look alike come from different tables or passages of the source.

Tests used:
SIK1 = target: T1, SIK1 (Homo sapiens, UniProt P57059); assay: biochemical; conditions: 33P radioactive SIK kinase assay, AMARA peptide, 10 μM ATP; read-out: SIK1 IC50
T1 construct: purchased Carna Biosciences 02-131
Summary of the method: (§1)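 Radiometric assay: SIK1, SIK2 or SIK3 phosphorylates AMARA peptide using unlabelled plus [^33P]-γ-ATP, reaction started by ATP addition. Stopped with 150 mM phosphoric acid, filter-harvested and washed; incorporated ^33P counted by scintillation. Controls: 1% DMSO and 10 μM staurosporine final.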

SIK2 = target: T2, SIK2 (Homo sapiens, UniProt Q9H0K1); assay: biochemical; conditions: 33P radioactive SIK kinase assay, AMARA peptide, 10 μM ATP
T2 construct: purchased ThermoFisher Scientific PV4792
Summary of the method: as §1

SIK3 = target: T3, SIK3 (Homo sapiens, UniProt Q9Y2K2); assay: biochemical
T3 construct: purchased SignalChem S12-11G-100
Summary of the method: as §1

[1] = test system: LPS-induced TNFα secretion in monocyte-derived macrophages (MdM); assay: MdM assay: LPS-triggered TNFα (ELISA); type: cell-based, human; conditions: LPS-triggered TNFα inhibition
Description: This assay evaluates illustrative compounds of the invention for their inhibition of LPS-induced TNFα and LPS triggered IL-10 secretion in monocyte-derived macrophages.
PBMCs are isolated from human blood samples (buffycoats). The buffy coat is aseptically transferred into a 50 mL Falcon tube, and diluted 1/2 in PBS. Falcon tubes are filled with 20 mL Lymphoprep™, on top of which 25 mL of the buffy coat is carefully added, tubes are centrifuged for 35 min at 400 g in temperature controlled centrifuge, without brake, at 25° C. PBMCs are aspirated from the white interface layer between sample and Lymphoprep™. PBMCs are washed five times in PBS.
PBMCs are centrifuged at 300×g for 10 min and resuspended at a density of 1.0E07 cells/80 μL Miltenyi buffer (PBS, pH 7.4, 1% FBS, 2 mM EDTA).
Starting from this point of the protocol all steps are performed on ice. 20 μL of CD14+ micro-beads are added per 1.0E07 cells, the tube is mixed and incubated for 15 min in the fridge at 4° C. Cell suspension volume is adjusted to total volume of 100 mL using Miltenyi buffer, mixed gently and subsequently centrifuged for 10 min at 300× g. Supernantant is discarded and cell pellet is resuspended in 12 mL of Miltenyi buffer.
Four LS columns are placed in the MACS Separator (magnet) from Miltenyi Biotec, and are prewet by rinsing with 3 mL of MACS buffer per column. Three mL of cell suspension is added onto the column (max 1*10^8 of labelled cells/column), and columns are subsequently washed 3 times with 3 mL of Miltenyi buffer.
The columns are removed from the magnets, and 5 mL of Miltenyi buffer are added to the column to flush out the CD14+ fraction by pushing the plunger into the column. The flushed fractions are collected in a fresh 50 mL Falcon and volume is adjusted to 30 mL using Miltenyi buffer, cells are centrifuged for 10 min at 300× g. The obtained cell pellet is resuspended in 10 mL RPMI w/o FBS, and cell density is determined using a hematologic analyser (Sysmex XS-500i).
On day 10, MdMs are triggered and compound is added.
A compound dilution plate is made in 100% DMSO by 3-fold dilution of 10 mM stock solution. An intermediate dilution plate (10× final concentration) is made by diluting the compound dilution plate 50-fold in RPMI medium.
Medium is carefully removed from cell plates using multichannel pipette, and replaced by 80 μL fresh medium. 10 μL of the 10× final concentration compound is added to the cells and incubated for 1 hour at 37° C. before addition of trigger. No trigger conditions/trigger conditions are spiked with equal final DMSO concentrations of 0.2% DMSO. 10 μL of 10×LPS (final conc. 200 ng/mL) solution are added to all wells except for the ‘no trigger wells’ where 10 μL medium is added. Supernatant is collected after 2 h (IL-10 determination) and after 20 h (TNFα determination) of LPS triggering.
The plate is then washed once with PBST (PBS+0.05% Tween20) and once with PBS followed by the addition of 100 μL of blocking buffer (1% Bovine Serum Albumin (BSA)-5% Sucrose) and plates are sealed and incubated for at least 4 h at RT. After washing the plate once with PBST and once with PBS, 40 μL of standard or sample are added (TNFα standard curve is prepared using a 1/2 serial dilution starting from 16000 pg/mL; dilutions are made in dilution buffer (PBS+1% BSA)). Plates are washed twice with PBST, and once with PBS, after which 35 μL of the detection antibody is added (final concentration 0.25 μg/mL diluted in dilution buffer) and plates are incubated for at least 2 h at RT. Plates are washed twice with PBST, and once with PBS, where after 35 μL of Strep-HRP conjugate (0.5 μg/mL final concentration diluted in dilution buffer) is added. Plates are incubated in the dark, at RT for at least 45 min but no longer than 1 hour. Plates are washed twice with PBST, and once with PBS.

T1 sequence (P57059 whole entry): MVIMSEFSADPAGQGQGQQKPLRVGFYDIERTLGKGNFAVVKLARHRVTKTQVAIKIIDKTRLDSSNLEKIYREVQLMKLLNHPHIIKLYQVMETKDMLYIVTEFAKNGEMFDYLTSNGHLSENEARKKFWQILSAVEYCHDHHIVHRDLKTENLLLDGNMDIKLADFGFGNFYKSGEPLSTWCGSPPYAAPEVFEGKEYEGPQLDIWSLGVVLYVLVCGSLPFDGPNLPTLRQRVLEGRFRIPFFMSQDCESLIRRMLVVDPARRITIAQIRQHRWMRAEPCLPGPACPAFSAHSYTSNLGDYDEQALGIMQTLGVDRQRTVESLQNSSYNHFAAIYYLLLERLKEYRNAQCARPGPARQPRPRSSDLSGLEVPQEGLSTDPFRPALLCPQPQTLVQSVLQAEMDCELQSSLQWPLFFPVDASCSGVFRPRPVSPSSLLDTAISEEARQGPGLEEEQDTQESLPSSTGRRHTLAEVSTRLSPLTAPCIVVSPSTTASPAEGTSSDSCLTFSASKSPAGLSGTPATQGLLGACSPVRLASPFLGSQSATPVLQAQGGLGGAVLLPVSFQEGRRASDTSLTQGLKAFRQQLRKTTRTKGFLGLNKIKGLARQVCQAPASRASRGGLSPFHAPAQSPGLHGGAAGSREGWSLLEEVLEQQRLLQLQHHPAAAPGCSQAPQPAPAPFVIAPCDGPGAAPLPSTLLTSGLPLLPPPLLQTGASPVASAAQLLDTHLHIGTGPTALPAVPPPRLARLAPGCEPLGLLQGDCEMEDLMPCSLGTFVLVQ
T2 sequence (Q9H0K1 whole entry): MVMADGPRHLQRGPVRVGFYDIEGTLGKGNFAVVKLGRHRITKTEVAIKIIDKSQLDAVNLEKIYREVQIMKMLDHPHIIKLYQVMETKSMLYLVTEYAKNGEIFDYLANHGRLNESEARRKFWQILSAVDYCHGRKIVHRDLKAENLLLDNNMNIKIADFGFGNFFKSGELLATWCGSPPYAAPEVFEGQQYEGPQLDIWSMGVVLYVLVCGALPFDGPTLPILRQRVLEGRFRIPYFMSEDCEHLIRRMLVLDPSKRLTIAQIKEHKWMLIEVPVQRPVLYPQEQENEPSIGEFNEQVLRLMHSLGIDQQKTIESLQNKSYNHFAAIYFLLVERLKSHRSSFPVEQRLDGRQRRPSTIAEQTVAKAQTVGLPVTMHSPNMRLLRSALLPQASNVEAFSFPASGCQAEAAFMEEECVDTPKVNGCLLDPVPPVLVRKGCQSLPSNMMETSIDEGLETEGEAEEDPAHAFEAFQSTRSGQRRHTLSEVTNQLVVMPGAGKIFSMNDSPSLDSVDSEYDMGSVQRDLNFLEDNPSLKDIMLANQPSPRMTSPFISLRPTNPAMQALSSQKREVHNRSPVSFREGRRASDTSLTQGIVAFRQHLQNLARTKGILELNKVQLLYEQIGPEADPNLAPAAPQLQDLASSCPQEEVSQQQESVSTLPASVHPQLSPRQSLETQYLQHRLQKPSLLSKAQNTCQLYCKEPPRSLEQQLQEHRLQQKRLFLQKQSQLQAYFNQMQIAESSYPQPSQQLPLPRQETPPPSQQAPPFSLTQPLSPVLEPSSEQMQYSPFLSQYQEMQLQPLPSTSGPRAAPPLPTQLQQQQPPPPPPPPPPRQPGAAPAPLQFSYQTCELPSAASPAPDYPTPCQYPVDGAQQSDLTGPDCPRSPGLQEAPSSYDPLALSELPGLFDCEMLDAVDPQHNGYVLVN
T3 sequence (Q9Y2K2 whole entry): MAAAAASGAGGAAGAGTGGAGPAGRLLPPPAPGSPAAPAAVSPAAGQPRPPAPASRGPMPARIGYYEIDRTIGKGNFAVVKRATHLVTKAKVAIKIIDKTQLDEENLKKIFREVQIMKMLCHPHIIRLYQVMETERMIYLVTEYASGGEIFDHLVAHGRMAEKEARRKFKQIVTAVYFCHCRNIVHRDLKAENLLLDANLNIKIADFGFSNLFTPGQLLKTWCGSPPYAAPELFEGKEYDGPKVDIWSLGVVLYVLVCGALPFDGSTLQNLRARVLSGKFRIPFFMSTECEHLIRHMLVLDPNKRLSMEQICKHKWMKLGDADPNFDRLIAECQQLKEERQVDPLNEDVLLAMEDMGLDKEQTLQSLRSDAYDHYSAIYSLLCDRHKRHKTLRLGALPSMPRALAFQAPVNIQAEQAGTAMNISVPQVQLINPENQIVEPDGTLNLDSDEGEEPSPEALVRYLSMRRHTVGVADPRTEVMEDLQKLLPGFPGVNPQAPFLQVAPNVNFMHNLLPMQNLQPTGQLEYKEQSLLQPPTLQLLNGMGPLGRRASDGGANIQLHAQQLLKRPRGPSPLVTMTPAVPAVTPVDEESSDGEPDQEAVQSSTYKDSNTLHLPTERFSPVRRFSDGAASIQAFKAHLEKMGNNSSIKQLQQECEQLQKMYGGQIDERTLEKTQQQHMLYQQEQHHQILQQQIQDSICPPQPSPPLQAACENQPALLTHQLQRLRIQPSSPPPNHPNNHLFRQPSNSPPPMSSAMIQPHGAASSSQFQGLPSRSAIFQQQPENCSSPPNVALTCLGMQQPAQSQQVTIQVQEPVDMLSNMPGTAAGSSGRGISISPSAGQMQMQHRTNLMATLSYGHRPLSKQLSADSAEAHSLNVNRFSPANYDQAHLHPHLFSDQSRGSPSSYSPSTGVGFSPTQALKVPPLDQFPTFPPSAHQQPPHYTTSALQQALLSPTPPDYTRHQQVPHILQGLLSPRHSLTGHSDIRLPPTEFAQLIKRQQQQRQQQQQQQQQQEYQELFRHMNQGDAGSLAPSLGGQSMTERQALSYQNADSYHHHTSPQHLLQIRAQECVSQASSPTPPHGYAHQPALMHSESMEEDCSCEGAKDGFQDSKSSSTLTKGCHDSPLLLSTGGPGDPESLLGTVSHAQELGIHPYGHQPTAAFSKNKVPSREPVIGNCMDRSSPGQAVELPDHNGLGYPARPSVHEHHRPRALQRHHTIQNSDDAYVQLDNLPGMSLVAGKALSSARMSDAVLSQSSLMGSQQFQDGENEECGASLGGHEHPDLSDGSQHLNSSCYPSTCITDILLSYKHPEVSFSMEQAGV

| Compound | IC50 (SIK1) [nM] | IC50 (SIK2) [nM] | IC50 (SIK3) [nM] | EC50 ([1]; Homo sapiens, Macrophage) [nM] | IC50 (SIK3; 33P radioactive SIK kinase assay, AMARA peptide, 15 μM ATP) [nM] | EC50 [1] [nM] |
| --- | --- | --- | --- | --- | --- | --- |
| COc1cc(-c2cnc3cc(-c4cnn(C)c4)ccn23)cc(O)c1C(=O)NCC(F)(F)F [Cpd 233, 2-hydroxy-6-methoxy-4-[7-(1-methylpyrazol-4-yl)imidazo[1,2-a]pvridin-3-yl]-N-(2,2,2-trifluoroethyl)benzamide] | 10 to 100 | 0.01 to 10 | 0.01 to 10 | 0.1 to 100 | – | – |
| CCn1cc(-c2cnc3c(-c4cc(OC)c(C(=O)NCC(F)F)c(OC)c4)cnn3c2)cn1 [compound 21, N-(2,2-difluoroethyl)-4-[6-(1-ethylpyrazol-4-yl)pyrazolo[1,5-a]pyrimidin-3-yl]-2,6-dimethoxy-benzamide] | 10 to 100 | 0.01 to 10 | 0.01 to 10 | 100 to 1000 | – | – |
| CCOc1cncc(-c2ccn3c(-c4cc(OC)c(C(=O)NCC(F)(F)F)c(OC)c4)cnc3c2)c1 [compound 248, 4-[7-(5-ethoxy-3-pyridyl)imidazo[1,2-a]pyridin-3-yl]-2,6-dimethoxy-N-(2,2,2-trifluoroethyl)benzamide] | 10 to 100 | 0.01 to 10 | 0.01 to 10 | 0.1 to 100 | – | – |
| CCNC(=O)c1c(OC)cc(-c2cnc3cc(-c4cnn(C5CCN(C(=O)OC(C)(C)C)CC5)c4)ccn23)cc1OC(F)F [compound 147, tert-butyl 4-[4-[3-[3-(difluoromethoxy)-4-(ethylcarbamoyl)-5-methoxy-phenyl]imidazo[1,2-a]pyridin-7-yl]pyrazol-1-yl]piperidine-1-carboxylate] | 0.01 to 10 | 0.01 to 10 | 0.01 to 10 | 0.1 to 100 | – | – |
| COC(=O)C(C)n1cc(-c2ccn3c(-c4cc(OC)c(C(=O)NCC(F)(F)F)c(OC)c4)cnc3c2)cn1 (stereo not drawn) [compound 244, methyl 2-[4-[3-[3,5-diinethoxy-4-(2,2,2-trifluoroethyl-carbamoyl)phenyl]imidazo[1,2-a]pyridin-7-yl]pyrazol-1-yl]propanoate] | 0.01 to 10 | 0.01 to 10 | – | – | 0.01 to 10 | 0.1 to 100 |
| COc1cc(-n2cnc3cc(-c4cnn(C5CCNCC5)c4)ccc32)cc(OC)c1C(=O)NCC(F)(F)F [compound 42, 2,6-dimethoxy-4-[5-[1-(4-piperidyl)pyrazol-4-yl]benzimidazol-1-yl]-N-(2,2,2-trifluoroethyl)benzamide] | 0.01 to 10 | 0.01 to 10 | 0.01 to 10 | 100 to 1000 | – | – |
| COc1cc(-c2cnc3cc(-c4cnn(CC(=O)OC(C)(C)C)c4)ccn23)cc(OC)c1C(=O)NCC(F)(F)F [Cpd 229, tert-butyl 2-[4-[3-[3,5-dimethoxy-4-(2,2,2-trifluoroethyl-carbamoyl)phenyl]imidazo[1,2-a]pyridin-7-yl]pyrazol-1-yl]acetate] | 0.01 to 10 | 0.01 to 10 | 0.01 to 10 | 100 to 1000 | – | – |
| COc1cc(-c2cnc3cc(-c4ccc(N5CCOCC5)nc4)ccn23)cc(OC)c1C(=O)NCC(F)(F)F [compound 251, 2,6-dimethoxy-4-[7-(6-morpholino-3-pyridyl)imidazo[1,2-a]pyridin-3-yl]-N-(2,2,2-trifluoroethyl)benzamide] | 0.01 to 10 | 0.01 to 10 | 0.01 to 10 | 0.1 to 100 | – | – |
| COc1cc(-c2cnc3cc(-c4cnn(CCCC(=O)O)c4)ccn23)cc(OC)c1C(=O)NCC(F)(F)F [Cpd 255, 4-[4-[3-[3,5-dimethoxy-4-(2,2,2-trifluoroethyl-carbamoyl)phenyl]imidazo[1,2-a]pyridin-7-yl]pyrazol-1-yl]butanoic acid] | 0.01 to 10 | 0.01 to 10 | 0.01 to 10 | 1000 to 5000 | – | – |
| COc1cc(-c2cnc3cc(-c4cnn(CC(=O)OCCF)c4)ccn23)cc(OC)c1C(=O)NCC(F)(F)F [Cpd 235, 2-fluoroethyl 2-[4-[3-[3,5-dimethoxy-4-(2,2,2-trifluoroethyl-carbamoyl)phenyl]imidazo[1,2-a]pyridin-7-yl]pyrazol-1-yl]acetate] | 0.01 to 10 | 0.01 to 10 | 0.01 to 10 | 0.1 to 100 | – | – |
| COc1cc(-c2cnc3cc(-c4cc(C)no4)ccn23)cc(OC)c1C(=O)NCC(F)(F)F [compound 232, 2,6-dimethoxy-4-[7-(3-methylisoxazol-5-yl)imidazo[1,2-a]pyridin-3-yl]-N-(2,2,2-trifluoroethyl)benzamide] | 10 to 100 | 0.01 to 10 | 0.01 to 10 | 0.1 to 100 | – | – |
| COc1cc(-c2cnn3cc(-c4cnn(C)c4)cnc23)cc(OC)c1C(=O)NCC(F)(F)F [Cpd 52, 2,6-dimethoxy-4-[6-(1-methylpyrazol-4-yl)pyrazolo[1,5-a]pyrimidin-3-yl]-N-(2,2,2-trifluoroethyl)benzamide] | 10 to 100 | 0.01 to 10 | 10 to 100 | 100 to 1000 | – | – |
| C#CC1(O)CN(C(=O)c2c(OC)cc(-n3cnc4cc(-c5cnn(C)c5)ccc43)cc2OC)C1 [compound 221, [2,6-dimethoxy-4-[5-(1-methylpyrazol-4-yl)benzimidazol-1-yl]phenvl]-(3-ethynyl-3-hydroxy-azetidin-1-yl)methanone] | 10 to 100 | 10 to 100 | 10 to 100 | 100 to 1000 | – | – |
| COc1cc(-n2cnc3cc(-c4ccc(N5CCOCC5)nc4)ccc32)cc(OC)c1C(=O)NCC(F)(F)F [compound 32, 2,6-dimethoxy-4-[5-(6-morpholino-3-pyridyl)benzimidazol-1-yl]-N-(2,2,2-trifluoroethyl)benzamide] | 10 to 100 | 10 to 100 | 10 to 100 | 100 to 1000 | – | – |
| COc1cc(-n2cnc3cc(-c4ccc(N5CCCC5)nc4)ccc32)cc(OC)c1C(=O)NCC(F)(F)F [compound 34, 2,6-dimethoxy-4-[5-(6-pyrrolidin-1-yl-3-pyridyl)benzimidazol-1-yl]-N-(2,2,2-trifluoroethyl)benzamide] | 10 to 100 | 0.01 to 10 | 10 to 100 | 100 to 1000 | – | – |
| COc1cc(-n2cnc3cc(-c4noc(C)n4)ccc32)cc(OC)c1C(=O)NCC(F)(F)F [Cpd 126, 2,6-dimethoxy-4-[5-(5-methyl-1,2,4-oxadiazol-3-yl)benzimidazol-1-yl]-N-(2,2,2-trifluoroethyl)benzamide] | > 500 | > 500 | > 500 | 1000 to 5000 | – | – |
| COc1cc(-c2cnc3cc(-c4cnn(C)c4)ccn23)cc(OC)c1C(=O)NCC(C)C [compound 129, N-isobutyl-2,6-dimethoxy-4-[7-(1-methylpvrazol-4-yl)imidazo[1,2-a]pyridin-3-yl]benzamide] | 10 to 100 | 0.01 to 10 | 0.01 to 10 | 100 to 1000 | – | – |
| CCNC(=O)c1c(OC)cc(-c2cnc3cc(-c4ccnnc4)ccn23)cc1OC(F)F [compound 145, 2-(difluoromethoxy)-N-ethyl-6-methoxy-4-(7-pyridazin-4-ylimidazo[1,2-a]pyridin-3-yl)benzamide] | 10 to 100 | 10 to 100 | 10 to 100 | 1000 to 5000 | – | – |
